Experimental data from US20230027295A1, “FXIA INHIBITORS AND PREPARATION METHOD THEREFOR AND PHARMACEUTICAL USE THEREOF” (Shenzhen Salubris Pharmaceuticals Co., Ltd., priority 2019, published 2023).

Assays:
CYP1A2 = molecular target: T1, CYP1A2 (Homo sapiens, UniProt P05177); assay: CYP enzyme inhibition in liver microsomes: CYP1A2; type: in vitro ADME; details: 0.2 mg/mL liver microsomes
T1 construct: Liver microsomes (150-donor, Corning, Cat. 452117; Lot; 38292), NADPH; tissue Corning 452117; host or cells: liver microsomes, 150-donor pool
T1 sequence (P05177 1-516): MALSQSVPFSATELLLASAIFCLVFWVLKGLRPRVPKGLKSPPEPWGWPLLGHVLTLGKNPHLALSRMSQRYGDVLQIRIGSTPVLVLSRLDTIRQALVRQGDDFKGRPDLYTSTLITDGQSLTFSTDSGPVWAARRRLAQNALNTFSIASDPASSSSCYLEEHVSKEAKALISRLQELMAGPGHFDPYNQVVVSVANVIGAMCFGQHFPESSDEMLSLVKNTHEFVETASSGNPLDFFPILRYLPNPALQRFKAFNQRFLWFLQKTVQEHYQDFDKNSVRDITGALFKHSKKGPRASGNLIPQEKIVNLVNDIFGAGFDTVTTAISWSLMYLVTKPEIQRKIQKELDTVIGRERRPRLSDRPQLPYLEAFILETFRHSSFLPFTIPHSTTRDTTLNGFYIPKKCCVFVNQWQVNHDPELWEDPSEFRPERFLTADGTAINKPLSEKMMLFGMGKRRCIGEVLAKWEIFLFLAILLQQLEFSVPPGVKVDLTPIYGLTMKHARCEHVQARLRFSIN
Method: (§1) Example 55: Investigation of CYP Enzyme Inhibition by the Compounds of the Present Invention Liver microsomes (150-donor, Corning, Cat. 452117; Lot. 38292), NADPH. A 0.2 mg/mL microsome system was prepared, each test substance and substrate were added, and the final concentration of the test substance was 50 μM. After pre-incubating for 8 min, 10 mM NADPH was added to start the reaction, and the final concentration of NADPH was 1 mM. After a period of incubation, an internal standard such as methanol was added to stop the reaction. The amount of substrate metabolites generated in each reaction well was detected. Data processing: Taking the metabolite generation in the blank well as 100%, the reduction of metabolite generation in each well of the test substance was calculated, and the inhibition rate was calculated.

CYP2B6 = molecular target: T2, CYP2B6 (Homo sapiens, UniProt P20813); assay: CYP enzyme inhibition in liver microsomes: CYP2B6; type: in vitro ADME; details: 0.2 mg/mL liver microsomes
T2 construct: Liver microsomes (150-donor, Corning, Cat. 452117; Lot; 38292), NADPH; tissue Corning 452117; host or cells: liver microsomes, 150-donor pool
T2 sequence (P20813 1-491): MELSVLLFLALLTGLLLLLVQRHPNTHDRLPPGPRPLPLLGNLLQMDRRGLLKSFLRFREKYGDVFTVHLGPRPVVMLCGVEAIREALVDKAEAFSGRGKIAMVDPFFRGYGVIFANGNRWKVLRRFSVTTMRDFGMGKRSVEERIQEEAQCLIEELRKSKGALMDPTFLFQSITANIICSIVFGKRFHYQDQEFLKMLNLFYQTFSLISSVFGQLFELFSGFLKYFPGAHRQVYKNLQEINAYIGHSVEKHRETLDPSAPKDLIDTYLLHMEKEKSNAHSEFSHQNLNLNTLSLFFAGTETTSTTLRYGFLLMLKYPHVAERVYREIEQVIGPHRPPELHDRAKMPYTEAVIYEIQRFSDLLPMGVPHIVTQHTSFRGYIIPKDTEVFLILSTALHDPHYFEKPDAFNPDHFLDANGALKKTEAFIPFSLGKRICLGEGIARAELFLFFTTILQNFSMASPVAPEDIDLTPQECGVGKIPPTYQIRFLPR
Method: as §1

CYP2D6 = molecular target: T3, CYP2D6 (Homo sapiens, UniProt P10635); assay: CYP enzyme inhibition in liver microsomes: CYP2D6; type: in vitro ADME; details: 0.2 mg/mL liver microsomes
T3 construct: Liver microsomes (150-donor, Corning, Cat. 452117; Lot; 38292), NADPH; tissue Corning 452117; host or cells: liver microsomes, 150-donor pool
T3 sequence (P10635 whole entry): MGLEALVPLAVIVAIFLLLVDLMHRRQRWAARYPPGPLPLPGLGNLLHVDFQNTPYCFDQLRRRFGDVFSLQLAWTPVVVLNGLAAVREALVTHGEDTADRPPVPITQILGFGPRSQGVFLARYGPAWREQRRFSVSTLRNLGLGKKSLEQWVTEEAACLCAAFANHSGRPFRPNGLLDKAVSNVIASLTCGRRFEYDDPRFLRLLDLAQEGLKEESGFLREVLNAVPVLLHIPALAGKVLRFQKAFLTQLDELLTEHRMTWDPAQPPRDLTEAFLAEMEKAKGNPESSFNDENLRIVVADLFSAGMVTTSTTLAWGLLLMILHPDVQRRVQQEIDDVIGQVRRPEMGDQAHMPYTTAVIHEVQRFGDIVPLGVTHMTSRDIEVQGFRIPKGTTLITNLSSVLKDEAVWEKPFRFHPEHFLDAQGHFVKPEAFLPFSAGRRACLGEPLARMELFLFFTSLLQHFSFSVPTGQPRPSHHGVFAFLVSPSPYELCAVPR
Method: as §1

CYP2C8 = molecular target: T4, CYP2C8 (Homo sapiens, UniProt P10632); assay: CYP enzyme inhibition in liver microsomes: CYP2C8; type: in vitro ADME; details: 0.2 mg/mL liver microsomes
T4 construct: Liver microsomes (150-donor, Corning, Cat. 452117; Lot; 38292), NADPH; tissue Corning 452117; host or cells: liver microsomes, 150-donor pool
T4 sequence (P10632 1-490): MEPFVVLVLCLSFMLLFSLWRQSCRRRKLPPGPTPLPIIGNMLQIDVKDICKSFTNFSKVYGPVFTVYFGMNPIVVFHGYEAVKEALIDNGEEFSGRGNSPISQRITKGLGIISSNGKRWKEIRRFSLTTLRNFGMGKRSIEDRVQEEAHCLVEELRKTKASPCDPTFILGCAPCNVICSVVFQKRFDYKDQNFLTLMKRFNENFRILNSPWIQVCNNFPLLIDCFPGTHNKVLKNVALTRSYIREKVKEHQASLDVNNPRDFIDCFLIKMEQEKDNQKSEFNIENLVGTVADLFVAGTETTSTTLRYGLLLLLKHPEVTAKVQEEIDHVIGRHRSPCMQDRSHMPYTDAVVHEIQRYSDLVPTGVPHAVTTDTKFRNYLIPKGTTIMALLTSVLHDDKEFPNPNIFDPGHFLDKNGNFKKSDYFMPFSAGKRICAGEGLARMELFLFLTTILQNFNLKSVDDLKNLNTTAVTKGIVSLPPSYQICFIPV
Method: as §1

Human Factor Xa = molecular target: T5, Human Factor Xa (Homo sapiens, UniProt P00742); assay: Selectivity to coagulation factors: hFXa (substrate S-2222); type: biochemical
T5 construct: hFXa: Human Factor Xa: 71nkat; purchased 71nkat
T5 sequence (P00742 235-488 limits assumed): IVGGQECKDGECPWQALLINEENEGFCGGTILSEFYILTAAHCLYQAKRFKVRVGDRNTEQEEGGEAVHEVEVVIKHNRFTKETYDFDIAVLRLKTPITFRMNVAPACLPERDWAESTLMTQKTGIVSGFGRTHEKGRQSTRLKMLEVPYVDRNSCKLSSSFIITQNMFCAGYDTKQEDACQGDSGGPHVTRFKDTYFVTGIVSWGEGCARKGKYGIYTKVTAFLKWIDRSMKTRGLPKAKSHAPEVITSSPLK
T5 sequence (P00742 41-179 partner limits assumed): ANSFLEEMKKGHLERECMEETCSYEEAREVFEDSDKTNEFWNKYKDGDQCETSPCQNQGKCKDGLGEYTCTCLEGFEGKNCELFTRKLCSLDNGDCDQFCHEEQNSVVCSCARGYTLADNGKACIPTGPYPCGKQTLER
Method: Example 52: Investigation of the Selectivity of the Compounds of the Present Invention to Coagulation Factors
Enzyme: hFXa: Human Factor Xa: 71nkat. hFIIa: HT5146L. hFVIIa: Human Factor VIIa: hFVIIa 4591L. kallikrein: LOT180223.
hFXa buffer: 100 mM NaCl, 5 mM CaCl2, 33% ethylene glycol, 50 mM Tris (pH 7.5).
10 mM test compound dissolved in 100% DMSO was diluted with 100% DMSO to 1000, 200, 40, 8, 1.6 μM. 98 μL of enzyme solution was added to each well of a 96-well plate, while 98 μL of buffer was added to the blank wells. 2 μL of compounds of different concentrations were added, while the blank and control wells were added with DMSO instead. They were mixed with a shaker, and incubated at 37° C. for 20 min.
The concentrations of hFXa and S-2222™ were FXa (1:28) and 800 μmol/L, respectively. The concentrations of hFIIa and S-2238™ were hFIIa (0.06 U/ml) and 500 μmol/L, respectively. The concentrations of hFVIIa and S-2288™ were hFVIIa (80 nM) and 1600 μmol/L, respectively. The concentrations of kallikrein and substrate were kallikrein (20 nM) and 1600 μmol/L, respectively.
Finally, 100 μL substrate was added to each well, and its absorbance was measured at 405 nm.

CYP2C9 = molecular target: T6, CYP2C9 (Homo sapiens, UniProt P11712); assay: CYP enzyme inhibition in liver microsomes: CYP2C9; type: in vitro ADME; details: 0.2 mg/mL liver microsomes
T6 construct: Liver microsomes (150-donor, Corning, Cat. 452117; Lot; 38292), NADPH; tissue Corning 452117; host or cells: liver microsomes, 150-donor pool
T6 sequence (P11712 whole entry): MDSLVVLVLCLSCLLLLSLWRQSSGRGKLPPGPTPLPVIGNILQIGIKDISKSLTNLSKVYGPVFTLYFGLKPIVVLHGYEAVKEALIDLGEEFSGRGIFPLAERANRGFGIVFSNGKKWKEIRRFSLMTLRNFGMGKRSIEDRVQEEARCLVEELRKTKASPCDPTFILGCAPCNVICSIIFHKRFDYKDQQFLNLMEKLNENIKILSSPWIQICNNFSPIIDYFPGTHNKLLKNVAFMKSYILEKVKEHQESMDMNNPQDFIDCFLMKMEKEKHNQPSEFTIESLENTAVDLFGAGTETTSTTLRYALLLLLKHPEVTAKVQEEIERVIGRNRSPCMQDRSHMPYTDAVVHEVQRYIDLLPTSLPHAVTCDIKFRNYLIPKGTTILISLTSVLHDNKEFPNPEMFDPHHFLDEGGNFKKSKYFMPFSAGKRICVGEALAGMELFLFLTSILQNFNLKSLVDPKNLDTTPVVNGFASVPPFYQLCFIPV
Method: Example 55: Investigation of CYP Enzyme Inhibition by the Compounds of the Present Invention Liver microsomes (150-donor, Corning, Cat. 452117; Lot. 38292), NADPH. […] After pre-incubating for 8 min, 10 mM NADPH was added to start the reaction, and the final concentration of NADPH was 1 mM. After a period of incubation, an internal standard such as methanol was added to stop the reaction. The amount of substrate metabolites generated in each reaction well was detected. […]

SMILES | IC50 (CYP1A2) [µM] | IC50 (CYP2B6) [µM] | IC50 (CYP2D6) [µM] | IC50 (CYP2C8) [µM] | IC50 (Human Factor Xa) [µM] | IC50 (CYP2C9) [µM]
COc1nn([C@@H](Cc2ccccc2)C(=O)Nc2ccc(C(=O)O)cc2)c(=O)cc1-c1cc(Cl)ccc1C(C)=O [Example 19, (S)-4-(2-(4-(2-acetyl-5-chlorophenyl)-3-methoxy-6-oxopyridazin-1(6H)-yl)-3-phenylpropanamido)benzoic acid] | > 50 | > 50 | > 50 | ~50 | > 100 | > 50
CCC(=O)c1ccc(Cl)cc1-c1cc(=O)n([C@@H](Cc2ccccc2)C(=O)Nc2ccc(C(=O)O)cc2)nc1OC [Example 32] | > 50 | > 50 | > 50 | ~30 | > 100 | ~50
